Measurements: US20240325398A1, “COMBINATION THERAPIES” (Infinity Pharmaceuticals, Inc., priority 2014, published 2024)

Columns and labels:
KARPAS-299 = assay: Combination study, ATPLite 72 h, dose matrix (Synergy Score, CI50); details: combination with Compound 1
Method: (§1) Cells are thawed from a liquid nitrogen preserved state. Once cells have been expanded and divide at their expected doubling times, screening begins. Cells are seeded in growth media in either black 1536-well or 384-well tissue culture treated plates. Cells are then equilibrated in assay plates via centrifugation and placed in incubators attached to the Dosing Modules at 37° C. for 24 hours before treatment. […] These Tzero (To) plates are read using ultra-sensitive luminescence on Envision plate readers (Perkin Elmer). Treated assay plates are incubated with compound for 72 hours. After 72 hours, plates are developed for endpoint analysis using ATPLite. All data points are collected via automated processes, quality controlled and analyzed using Zalicus software.
(§2) where T is treated cell count and V is untreated (vehicle) cell count (at 72 hours). I ranges from 0% (when T=V) to 100% (when T=0). […] The measure of effect in the experiment can be the inhibition of cellular response relative to the untreated level (vehicle alone). […] The inhibition ranges from 0% at the untreated level to 100% when T=0. Inhibition levels are negative for agents that actually increase levels. Other effect measures, such as an activity ratio r=T/V may be more appropriate for some assays. When activity ratios (e.g, fold increase over stimulated control) are being used, the effect can be measured using an induction 1=ln(T/V). With this definition, all effect expressions are the same as for inhibition.
(§3) Growth Inhibition (GI) is used as a measure of cell viability. […] A GI reading of 100% represents complete growth inhibition—T72 compound-treated and T0 vehicle signals are matched. […] A GI reading of 200% represents complete death of all cells in the culture well. Compounds reaching an activity plateau of GI 200% are considered cytotoxic. GI is calculated by applying the following test and equation:
(§4) Combination analysis data were collected in a 6×6 dose matrix. Synergy is calculated by comparing a combination's response to those of its single compound, against the drug-with-itself dose-additive reference model. Deviations from dose additivity may be assessed visually on an isobologram or numerically with a Combination Index (CI). […] Additive effect is CI=1.0. […] Antagonistic effect is CI>1.0.
(§5) To measure combination effects in excess of Loewe additivity, a scalar measure to characterize the strength of synergistic interaction termed the Synergy Score is devised. The Synergy Score is calculated as:
(§6) The fractional inhibition for each component agent and combination point in the matrix is calculated relative to the median of all vehicle-treated control wells. The Synergy Score equation integrates the experimentally-observed activity volume at each point in the matrix in excess of a model surface numerically derived from the activity of the component agents using the Loewe model for additivity. Additional terms in the Synergy Score equation (above) are used to normalize for various dilution factors used for individual agents and to allow for comparison of synergy scores across an entire experiment. The inclusion of positive inhibition gating or an Idata multiplier removes noise near the zero effect level, and biases results for synergistic interactions at that occur at high activity levels.
(§7) Loewe Volume (Loewe Vol) is used to assess the overall magnitude of the combination interaction in excess of the Loewe additivity model. Loewe Volume is particularly useful when distinguishing synergistic increases in a phenotypic activity (positive Loewe Volume) versus synergistic antagonisms (negative Loewe Volume). […] This model defines additivity as a non-synergistic combination interaction where the combination dose matrix surface should be indistinguishable from either drug crossed with itself.

U-2932 = assay: as above; details: combination with Compound 1, 72 h
Method: as §1, §2, §3, §4, §5, §6
(§8) Loewe Volume (Loewe Vol) is used to assess the overall magnitude of the combination interaction in excess of the Loewe additivity model. Loewe Volume is particularly useful when distinguishing synergistic increases in a phenotypic activity (positive Loewe Volume) versus synergistic antagonisms (negative Loewe Volume). […] This model defines additivity as a non-synergistic combination interaction where the combination dose matrix surface should be indistinguishable from either drug crossed with itself. The calculation for Loewe additivity is:

OMP-2 = assay: as above; details: combination with Compound 1; OPM-2
Method: as §1, §2, §3, §4, §5, §6, §7

[1] = as above; details: combination with Compound 1; OPM-2
Method: as §1, §2, §3, §4, §5, §6, §7

GRANTA-519 = assay: as above; details: combination with Compound 1
TMD8 = assay: as above; details: combination with Compound 1; TMD8; 72 h
WSU-NHL = assay: as above; details: combination with Compound 1, 72 h
OCI-Ly7 = assay: as above; details: combination with Compound 1, 72 h
Farage = assay: as above; details: combination with Compound 1; Farage; 72 h
SU-DHL-4-epst = assay: as above; details: combination with Compound 1, 72 h
KARPAS-422 = assay: as above; details: combination with Compound 1, 72 h
Method: as §1, §2, §3, §4, §5, §6, §7

NCI-H929 = assay: as above; details: combination with Compound 1
Method: as §1, §2, §3, §4, §5, §6, §7

OCI-Ly3 = assay: as above; details: combination with Compound 1; OCI-Ly3; 72 h
SU-DHL-10-epst = assay: as above; details: combination with Compound 1, 72 h
Method: as §1
The measure of effect in the experiment can be the inhibition of cellular response relative to the untreated level (vehicle alone). […] The inhibition ranges from 0% at the untreated level to 100% when T=0. Inhibition levels are negative for agents that actually increase levels.
as §3, §4, §5, §6, §8

HBL-1 = assay: as above; details: combination with Compound 1, 72 h
RPMI-8226 = assay: as above; details: combination with Compound 1
Mino = assay: as above; details: combination with Compound 1
HH = assay: as above; assay type: cell-based; details: combination with Compound 1
Method: The method is described as follows.
Additive effect is CI=1.0. […] Antagonistic effect is CI>1.0.
The Synergy Score is calculated as: […]

Jeko-1 = assay: as above; details: combination with Compound 1
Method: as §1, §2, §3, §4, §5, §6, §7

DOHH-2 = assay: as above; details: combination with Compound 1, 72 h
RL = assay: as above; details: combination with Compound 1, 72 h
Method: as §1, §2, §3, §4, §5, §6, §7

CCCCCCCCCCCCCCCCCCOP(=O)([O-])OC1CC[N+](C)(C)CC1 [perifosine, 1,1-dimethylpiperidinium-4-yl octadecyl phosphate]
CI50 growth inhibition (KARPAS-299): W (W=≥1) | CI50 inhibition (KARPAS-299): W (W=≥1) | Synergy Score growth inhibition (KARPAS-299): A1 (A1=0.0001 to <1) | Synergy Score inhibition (KARPAS-299): A1 (A1=0.0001 to <1) | CI50 growth inhibition (U-2932): W (W=≥1) | CI50 inhibition (U-2932): W (W=≥1) | Synergy Score growth inhibition (U-2932): A1 (A1=0.0001 to <1) | Synergy Score inhibition (U-2932): A1 (A1=0.0001 to <1) | CI50 inhibition (OMP-2): W (W=≥1) | Synergy Score growth inhibition (OMP-2): A2 (A2=1 to <3) | Synergy Score inhibition (OMP-2): A1 (A1=0.0001 to <1) | CI50 growth inhibition [1]: U (U=0.7 to <1) | CI50 growth inhibition (GRANTA-519): S (S=0.01 to <0.5) | CI50 inhibition (GRANTA-519): W (W=≥1) | Synergy Score growth inhibition (GRANTA-519): A2 (A2=1 to <3) | Synergy Score inhibition (GRANTA-519): A1 (A1=0.0001 to <1) | CI50 growth inhibition (TMD8): T (T=0.5 to <0.7) | CI50 inhibition (TMD8): T (T=0.5 to <0.7) | Synergy Score growth inhibition (TMD8): A2 (A2=1 to <3) | Synergy Score inhibition (TMD8): A2 (A2=1 to <3) | CI50 growth inhibition (WSU-NHL): U (U=0.7 to <1) | CI50 inhibition (WSU-NHL): T (T=0.5 to <0.7) | Synergy Score growth inhibition (WSU-NHL): A3 (A3=>3) | Synergy Score inhibition (WSU-NHL): A2 (A2=1 to <3) | CI50 growth inhibition (OCI-Ly7): U (U=0.7 to <1) | CI50 inhibition (OCI-Ly7): W (W=≥1) | Synergy Score growth inhibition (OCI-Ly7): A2 (A2=1 to <3) | Synergy Score inhibition (OCI-Ly7): A1 (A1=0.0001 to <1) | CI50 growth inhibition (Farage): S (S=0.01 to <0.5) | CI50 inhibition (Farage): T (T=0.5 to <0.7) | Synergy Score growth inhibition (Farage): A3 (A3=>3) | Synergy Score inhibition (Farage): A2 (A2=1 to <3) | CI50 growth inhibition (SU-DHL-4-epst): S (S=0.01 to <0.5) | CI50 inhibition (SU-DHL-4-epst): U (U=0.7 to <1) | Synergy Score growth inhibition (SU-DHL-4-epst): A2 (A2=1 to <3) | Synergy Score inhibition (SU-DHL-4-epst): A1 (A1=0.0001 to <1) | CI50 growth inhibition (KARPAS-422): W (W=≥1) | CI50 inhibition (KARPAS-422): U (U=0.7 to <1) | Synergy Score growth inhibition (KARPAS-422): A1 (A1=0.0001 to <1) | Synergy Score inhibition (KARPAS-422): A1 (A1=0.0001 to <1) | CI50 growth inhibition (NCI-H929): U (U=0.7 to <1) | CI50 inhibition (NCI-H929): W (W=≥1) | Synergy Score growth inhibition (NCI-H929): A2 (A2=1 to <3) | Synergy Score inhibition (NCI-H929): A1 (A1=0.0001 to <1) | CI50 growth inhibition (OCI-Ly3): W (W=≥1) | CI50 inhibition (OCI-Ly3): W (W=≥1) | Synergy Score growth inhibition (OCI-Ly3): A1 (A1=0.0001 to <1) | Synergy Score inhibition (OCI-Ly3): A1 (A1=0.0001 to <1) | CI50 growth inhibition (SU-DHL-10-epst): T (T=0.5 to <0.7) | CI50 inhibition (SU-DHL-10-epst): U (U=0.7 to <1) | Synergy Score growth inhibition (SU-DHL-10-epst): A2 (A2=1 to <3) | Synergy Score inhibition (SU-DHL-10-epst): A2 (A2=1 to <3) | CI50 growth inhibition (HBL-1): U (U=0.7 to <1) | CI50 inhibition (HBL-1): W (W=≥1) | Synergy Score growth inhibition (HBL-1): A3 (A3=>3) | Synergy Score inhibition (HBL-1): A1 (A1=0.0001 to <1) | CI50 growth inhibition (RPMI-8226): T (T=0.5 to <0.7) | CI50 inhibition (RPMI-8226): U (U=0.7 to <1) | Synergy Score growth inhibition (RPMI-8226): A3 (A3=>3) | Synergy Score inhibition (RPMI-8226): A1 (A1=0.0001 to <1) | CI50 growth inhibition (Mino): U (U=0.7 to <1) | CI50 inhibition (Mino): W (W=≥1) | Synergy Score growth inhibition (Mino): A2 (A2=1 to <3) | Synergy Score inhibition (Mino): A1 (A1=0.0001 to <1) | CI50 growth inhibition (HH): W (W=≥1) | CI50 inhibition (HH): S (S=0.01 to <0.5) | Synergy Score growth inhibition (HH): A3 (A3=>3) | Synergy Score inhibition (HH): A2 (A2=1 to <3) | CI50 growth inhibition (Jeko-1): U (U=0.7 to <1) | CI50 inhibition (Jeko-1): W (W=≥1) | Synergy Score growth inhibition (Jeko-1): A1 (A1=0.0001 to <1) | Synergy Score inhibition (Jeko-1): A1 (A1=0.0001 to <1) | CI50 growth inhibition (DOHH-2): T (T=0.5 to <0.7) | CI50 inhibition (DOHH-2): U (U=0.7 to <1) | Synergy Score growth inhibition (DOHH-2): A3 (A3=>3) | Synergy Score inhibition (DOHH-2): A2 (A2=1 to <3) | CI50 growth inhibition (RL): W (W=≥1) | CI50 inhibition (RL): W (W=≥1) | Synergy Score growth inhibition (RL): A1 (A1=0.0001 to <1) | Synergy Score inhibition (RL): A1 (A1=0.0001 to <1)
